Each block holds one compound with its values, some of them ahead of it.
What was measured:
[1] = tested on: vps35Δ, pep8Δ, vps20Δ, vps27Δ and vps36Δ strains; experiment: Single-mutant sensitivity growth assay of deletion strains in YPD medium; assay type: cell-based, Saccharomyces cerevisiae; conditions: for growth of the 5 hypoculoside-sensitive mutants compared with wild type strain: 20 µM, vps35, pep8, vps20, vps27, vps36
Experimental: Figure 3 Homozygous profiling of hypoculoside in Saccharomyces cerevisiae. (A) logFC (Fitness Coefficient) was plotted against P-value for the 3702 mutants that were analyzed by HOP. The more negative the logFC value of a mutant, more sensitive is the mutant to hypoculoside. Mutants that have logFC < −0.5 and P-value < 0.05 are indicated by red dots and the remaining strains are indicated as blue dots. For the sake of clarity, gene names of only a subset of the top hits are indicated in the plot. (B) Wild type strain BY4743 and 24 deletion strains that were sensitive to hypoculoside in the HOP assay, were grown in the YPD medium in the presence of either DMSO or hypoculoside at different concentrations (0, 0.6, 1.3, 2.7 and 5.5 µM). Normalized growth at the different concentrations of hypoculoside tested after 24 hours of incubation at 30 °C is plotted for each strain.
To test the validity of our HOP data, we first identified 336 ‘hypoculoside-sensitive’ mutants (Supplementary Table S1) that had at least a 1.4-fold inhibitory effect on their growth rate (i.e. logFC ≤ −0.5) with a P-value ≤ 0.05. From the list of 336 mutants, we chose 24 mutants that represent different Gene Ontology categories (see below) and tested their sensitivity to hypoculoside. Eighteen of the total 24 mutants were sensitive to hypoculoside confirming the HOP data (Fig. 3B). We also tested mutants that were predicted to be resistant to hypoculoside (positive logFC ≥ 0.5 and P-value ≤ 0.05). But none of them were resistant to hypoculoside in comparison to wild type strain in the single-mutant sensitivity assays (data not shown).
(§1) Figure 5 Structure-activity studies of hypoculoside. (A) Wild type strain (BY4743), vps35Δ, pep8Δ, vps20Δ, vps27Δ and vps36Δ strains were grown in YPD medium in the presence of hypoculoside or hypoculine at the indicated concentrations. Normalized growth at the different concentrations of hypoculoside and hypoculine tested after 24 hours of incubation at 30 °C is plotted for each strain. (B) Wild type strain (BY4743), vps35Δ, pep8Δ, vps20Δ, vps27Δ and vps36Δ strains were grown in YPD medium in the presence of hypoculoside or phytosphingosine or dihydrosphingosine at the indicated concentrations. Normalized growth at the different concentrations of hypoculoside, phytosphingosine and dihydrosphingosine tested after 24 hours of incubation at 30 °C is plotted for each strain.

[2] = tested on: Saccharomyces cerevisiae diploid wild-type strain (BY4743); experiment: Growth inhibition of wild type Saccharomyces cerevisiae in YPD medium (96-well, OD600); assay type: cell-based; conditions: for concentration that completely inhibited the growth of wild type yeast cells: 24 hours at 30 °C (Fig. 5B); for inhibitory concentration relative to inhibitory concentration of hypoculoside: wild type yeast cells, higher than hypoculoside
Experimental: as §1
Susceptibility of Candida albicans strain SC5314 to hypoculoside and amphotericin B was determined by a broth microdilution assay using Clinical Laboratory Standards Institute (CLSI) guidelines. Cells grown to exponential phase in YPD medium (1% Yeast extract, 2% Bacto peptone and 2% glucose) were harvested, washed and resuspended in RPMI 1640 medium at a density of 2×10^3 cells/mL. RPMI 1640 medium with L-glutamine without sodium bicarbonate (Sigma) was buffered with 0.165 M morpholinepropanesulfonic acid (MOPS) to a pH of 7.0. Two-fold dilutions of hypoculoside and amphotericin B were prepared such that final concentration of DMSO was 1% in all cultures. Cell suspension was distributed in microtiter plate (200 µL/well) and incubated at 35 °C with 220 rpm for 24 h. The Saccharomyces cerevisiae diploid wild-type strain (BY4743) was used for determining the Inhibitory Concentration (IC) of hypoculoside. Frozen yeast cells were allowed to recover on YPD agar plates and grown in YPD medium for nine generations (OD600 nm ≤ 2). Cells were diluted to OD600 nm of 0.0625 in YPD medium. 200 μL of the diluted yeast culture was transferred into the 96-well microtiter plate having 2-fold serially diluted concentrations of hypoculoside. Cells were incubated in a microplate reader for 16–24 hours at 30 °C with shaking. IC of hypoculoside was computed by comparing the growth of treated versus control cells.

[3] = tested on: Wild type strain (BY4743); experiment: Rescue of myriocin-induced growth inhibition in yeast; assay type: cell-based, Saccharomyces cerevisiae; conditions: for rescue of myriocin-induced inhibition: added at 10 μM
Experimental: Myriocin is an inhibitor of Serine palmitoyltransferase (SPT), which catalyzes the first step in the synthesis of sphingolipid biosynthesis. Addition of PHS or DHS can rescue inhibition caused by myriocin[28]. We tested whether hypoculoside can rescue the toxicity of myriocin–treated cells.
Wild type strain (BY4743) was grown in YPD medium containing different concentrations of myriocin and either phytosphingosine (PHS) or dihydrosphingosine (DHS) or hypoculoside (HYP) at the indicated concentrations. Normalized growth at the different concentrations after 24 hours of incubation at 30 °C is plotted for the various cultures.

Staphylococcus aureus = tested on: Staphylococcus aureus; design: method as in PMID 23128426; conditions: also disrupt cell membrane; cited from earlier work
fungi = tested on: fungi; design: method as in PMID 10654417; conditions: cited from earlier work
[4] = tested on: Candida albicans strain SC5314; experiment: Broth microdilution growth inhibition of Candida albicans (CLSI guidelines, OD600 after 24 h); assay type: cell-based; conditions: strain SC5314, OD600 nm after 24 hours, read-out: IC50 for inhibition of growth of C. albicans cells
Experimental: Figure 2 Hypoculoside has antifungal activity. (A) Workflow used in the purification and analysis of hypoculoside from Acremonium sp. F2434. (B) Structure of hypoculoside (8) and its aglycone derivative hypoculine (9). (C) Logarithmically growing Candida albicans cells were exposed to hypoculoside and amphotericin B at various concentrations in triplicates in a 96-well microplate. Growth of the cells was quantified by recording the absorbance at 600 nm after 24 hours. Growth (normalized with respect to DMSO-treated cells) is plotted against log of concentration of the compound. A picture of the microplate after 24 hours of incubation at 30 °C is shown in Supplementary Fig. S2A. (D) Effect of hypoculoside on the growth of Saccharomyces cerevisiae cells grown in YPD medium was analyzed in the similar way as for Candida albicans described above in C.
We evaluated the potency of hypoculoside by examining its effect on the growth of Candida albicans strain (SC5314) using the Clinical and Laboratory Standards Institute (CLSI) guidelines. We used the well-known antifungal amphotericin B as a positive control. We exposed logarithmically growing Candida albicans cells to hypoculoside and amphotericin B at various concentrations and monitored the growth by recording the OD600 nm after 24 hours. […]

[5] = tested on: vacuoles of wild type yeast cells; experiment: FM 4-64 fluorescence microscopy of vacuolar structure; assay type: cell-based, Saccharomyces cerevisiae; conditions: 11.6 µM, FM 4-64 pre-labelled wild type cells, N = 100 cells
Experimental: As several vacuolar transport mutants were sensitive to hypoculoside (Fig. 3), we examined the effect of hypoculoside on the vacuolar structure of yeast cells. We incubated wild type yeast cells with FM 4–64, a dye that stains the vacuolar membranes, for 1 hour. We then washed off the excess FM 4–64 from the medium and transferred the cells into fresh medium with either hypoculoside or hypoculine or DMSO. […] In contrast, about 50% of 11.6 µM hypoculoside-treated cells had defective vacuoles (Fig. 7B). However, only 3% of 11.6 µM hypoculine-treated cells had defective vacuoles. Thus, the effect of hypoculoside and hypoculine on vacuolar structure correlates with their inhibitory activities.
Figure 7 Hypoculoside but not hypoculine disrupts the vacuolar structure of yeast cells. Wild type yeast cells containing vacuoles pre-labelled with the lipophilic dye FM 4-64 were exposed to either DMSO or hypoculoside or hypoculine at the indicated concentrations for 1 hour. Effects of the compounds on vacuolar morphology was analyzed by fluorescence microscopy. […] (B) Quantification of the various categories for cells treated with either DMSO or hypoculoside or hypoculine is plotted (N = 100 cells). […]
Labeling of yeast cells with FM4-64 (Invitrogen) was done as previously reported. […] The images were acquired using an inverted fluorescence microscope ZEISS LSM 5 LIVE (Carl Zeiss, Oberkochen, Germany).

BY4743 cells = experiment: Propidium iodide (PI)-staining assay of plasma membrane integrity; assay type: cell-based, Saccharomyces cerevisiae; conditions: 1.8, 3.5 and 5.3 µM, 30′ and 2 hours
Experimental: Figure 8 Hypoculoside but not hypoculine disrupts the membrane integrity of yeast cells. (A) Wild type yeast cells pre-treated with either DMSO or hypoculoside (5.4 μM) were exposed to FM 4-64FX. Uptake of FM 4-64FX after 0′, 30′ and 120′ was analyzed by fluorescence microscopy of fixed cells. (B) Yeast cells were incubated with either DMSO or hypoculoside or hypoculine at different concentrations (1.8, 3.5 and 5.3 µM) for 30′ and 2 hours. They were then treated with propidium iodide (PI) and percentage of PI-staining cells was assayed by fluorescence microscopy. Representative images of cells visualized by bright field and fluorescence microscopy are shown along with quantification of PI-staining cells (N = 100 cells) in (C).
We then tested whether hypoculoside causes membrane leakage using the membrane impermeant dye propidium iodide (PI). […] We then incubated the cells with PI and visualized its uptake by fluorescence microscopy. […]
BY4743 cells (OD600 nm ≈ 1) were exposed to various concentrations of hypoculoside or hypoculine or DMSO in YPD for 30′ and 2 hours. […] PI uptake by cells was assayed by bright-field and fluorescence microscopy [Excitation/Emission (nm): 535/617] and the percentage of PI-staining cells (N ≥ 100) was calculated.

cancer cell lines = tested on: cancer cell lines; design: method as in PMID 18343365; conditions: cited from earlier work

SMILES: CCCCCCCCCCCCCCC[C@@H](O)[C@@H](N)CO [DHS, dihydrosphingosine, reference compound]
growth of the 5 hypoculoside-sensitive mutants compared with wild type strain [1]: lower in comparison to wild type strain
concentration that completely inhibited the growth of wild type yeast cells ([2]; BY4743, YPD): 40 µM
inhibitory concentration relative to inhibitory concentration of hypoculoside [2]: about 4 fold
rescue of myriocin-induced inhibition [3]: completely rescued
growth inhibition of Staphylococcus aureus (Staphylococcus aureus): inhibit the growth

SMILES: CCCCCCC(=O)CCCCCC/C=C/C[C@@H](O)[C@H](O)[C@@](N)(CO)C(=O)O [Myriocin]
concentration that inhibited the growth of yeast cells ([3]; wild type BY4743, YPD, 24 hours at 30 °C): 3.11 µM

SMILES: C[C@@H](N)[C@H](O)CCCCCCCCCCCCCCC(=O)CCCCCCC[C@@H](O)[C@@H](N)CO [Oceanin]
toxicity to fungi compared with oceanapiside (fungi): considerably more toxic to fungi

SMILES: CCCCCCCCCCCCCC[C@@H](O)[C@@H](O)[C@@H](N)CO [PHS, phytosphingosine, reference compound]
growth of the 5 hypoculoside-sensitive mutants compared with wild type strain [1]: lower in comparison to wild type strain
concentration that completely inhibited the growth of wild type yeast cells ([2]; BY4743, YPD): 40 µM
inhibitory concentration relative to inhibitory concentration of hypoculoside [2]: about 4 fold
rescue of myriocin-induced inhibition [3]: completely rescued
growth inhibition of Staphylococcus aureus (Staphylococcus aureus): inhibit the growth

IC50 [4]: 32 nM
SMILES: C[C@@H]1[C@H](O)[C@@H](C)/C=C/C=C/C=C/C=C/C=C/C=C/C=C/[C@H](O[C@@H]2O[C@H](C)[C@@H](O)[C@H](N)[C@@H]2O)C[C@@H]2O[C@](O)(C[C@@H](O)C[C@@H](O)[C@H](O)CC[C@@H](O)C[C@@H](O)CC(=O)O[C@H]1C)C[C@H](O)[C@H]2C(=O)O [amphotericin B, reference compound]

SMILES: CC(N)C(O)CCCCCCCCCCCCCCCCCCC(O)C(C)O (stereo not shown) [hypoculine]
cells with defective vacuoles [5]: 3%
concentration at which mutants still displayed significant growth ([1]; mutants except for pep8 and vps35 (vps20, vps27, vps36), YPD, 24 hours at 30 °C): > 200 µM
concentration that inhibited the growth of wild type cells ([2]; BY4743, YPD, 24 hours at 30 °C (Fig. 5A)): > 200 µM
cells with PI staining (BY4743 cells): less than 10%

SMILES: CCCCCCCCCCCCC/C=C/[C@@H](O)[C@@H](N)CO [sphingosine, (2S,3R,4E)-2-amino-4-octadecen-1,3-diol]
growth inhibition of Staphylococcus aureus (Staphylococcus aureus): inhibit the growth

SMILES: CCCCCCCCCCCCCCC[C@@H](O)[C@H](C)N [spisulosine, 1-deoxysphinganine]
activity against cancer cell lines (cancer cell lines): potent activity

Source: PMC6345779, “Hypoculoside, a sphingoid base-like compound from Acremonium disrupts the membrane integrity of yeast cells” (Scientific Reports, 2019)
